# Data taken from patent US9144569B2, “Methods of administering an aromatase inhibitor, prostaglandin and GnRH for regulating ovulation in cattle” (UNIVERSITY OF SASKATCHEWAN, priority 2010, dated 2015).
# Marks after values point to notes of the source that are not given here.
# Key:
# heifers = test: Example III: letrozole 1 mg/kg intravenously or intramuscularly in heifers, ovarian ultrasonography; format: in vivo, cattle; details: for Interwave Interval / Interovulatory Interval: mean±SEM
# Procedure: Ovarian cyclicity in heifers was synchronized using transvaginal ultrasound-guided follicular ablation followed by a double dose of PGF 4 days after ablation. The ovaries were examined daily by transrectal ultrasonography to detect ovulation. Three days after ovulation, heifers were assigned randomly to four treatment groups and given letrozole at a dose of 1 mg/kg intravenously (in benzyl alcohol, n=10) or intramuscularly (in benzyl alcohol plus canola oil 1:1 v/v, n=10), or given a placebo intravenously (benzyl alcohol, n=5) or intramuscularly (benzyl alcohol plus canola oil 1:1 v/v, n=5). Ovarian structures were monitored by ultrasonography and blood samples were collected by jugular venipuncture twice daily from pre-treatment to post-treatment ovulations. Comparisons among groups were made by one-way ANOVA for single-point measurements and by ANOVA for repeated measures for time-series data.
# Transrectal ultrasonography: daily from PGF treatment to the first ovulation post-treatment.
# Endpoints are: Follicular diameter profiles; CL diameter profile; Circulating progesterone concentration; Circulating FSH and LH profiles; Letrozole profile and bioavailability; Circulating estradiol concentration Follicular fluid estradiol concentration).
# [1] = tested on: Hereford-cross beef heifers; test: Example II: 3-day letrozole regimen in heifers, ovarian ultrasonography; format: in vivo, cattle; details: for Inter-ovulatory interval / Inter-wave interval: 85 μg/kg/day iv; for Inter-wave interval: mean±SEM
# Procedure: Hereford-cross beef heifers, 14 to 20 months of age and weighing between 233 and 404 kg, were chosen from a herd of 50 animals maintained in outdoor corrals at the University of Saskatchewan Goodale Research Farm (52° North and 106° West). Heifers were fed alfalfa/grass hay and grain to gain approximately 1.3 kg per day and had water ad libitum during the experimental period from May to July. Heifers were initially examined by transrectal ultrasonography (7.5 MHz linear-array transducer, Aloka SSD-900; Tokyo, Japan) to confirm that they were postpubertal by the presence of a CL [33].
# (§1) Four days after follicular ablation, heifers were given 500 μg of cloprostenol (PGF, Estrumate, Schering-Plough Animal Health, Pointe-Claire, QC, Canada) intramuscularly (im) to induce regression of the CL and to synchronize ovulation. The experiment was performed in two replicates (n=20-27 per replicate) and each heifer was used only once. In replicate 1, heifers were assigned randomly at the time of ovulation (Day 0) to the following groups and given a 3-day regimen of letrozole from Days 1 to 3 (n=5), Days 3 to 5 (n=5), Days 5 to 7 (n=5), or no treatment (control group, n=5). In replicate 2, heifers were similarly assigned to groups and given letrozole from Days 1 to 3, (n=5), Days 3 to 5 (n=4), or Days 5 to 7 (n=4), but untreated control heifers were arranged in three sub-groups to serve as contemporaneous controls for each letrozole-group during intensive blood sampling periods (i.e., control Days 1 to 3, n=4; control Days 3 to 5, n=4; and control Days 5 to 7, n=5). For practical purposes, the total dose of letrozole (250 μg/kg) was calculated on the basis of an average weight of 350 kg for all heifers and administered intravenously in daily divided doses over 3 days (85 μg/kg per day). For intravenous injection, letrozole was prepared in 95% ethanol to a final concentration of 5 mg/ml, resulting in an injection volume of 6 mL/day.
# Ultrasound examinations were recorded on a sketch sheet in which each ovary and its structures (CL [37] and follicles ≧4 mm in diameter) were represented in size and relative location. Ovulation was defined as the disappearance of any follicle ≧8 mm between two consecutive daily examinations, and was confirmed by the subsequent development of a CL [39]. Follicular wave emergence was defined retrospectively as the day when the dominant follicle was first identified at a diameter of 4 or 5 mm. If the dominant follicle was not identified until it reached 6 or 7 mm, the previous day was considered the day of follicular wave emergence. The dominant follicle of a wave was defined as the largest antral follicle of that wave after deviation, and the first subordinate follicle as the second largest antral follicle originated from the same wave. The day of onset of follicular and luteal regression was defined as the first day of an apparent constant decrease in follicular and luteal diameters, respectively.
# Statistical analyses were done using the Statistical Analysis System software package (SAS Learning Edition 9.1, 2006; SAS Institute Inc., Cary, N.C., USA). Time-series hormone data, plasma letrozole concentration, and follicular and luteal diameter profiles were analysed by repeated measures, using the PROC MIXED procedure. The main effects were treatment, time, and their interactions. […] Single point measurements (interwave and interovulatory intervals, interval from ovulation to onset of CL regression, mean and basal LH concentrations, LH pulse amplitude and frequency, and pharmacokinetic parameters for letrozole) were analysed by analysis of variance. […] If significant main effects or interactions (P≦0.05) were detected, Tukey's post-hoc test was used for multiple comparisons.
# plasma FSH = test: Example II: plasma FSH during 3-day letrozole regimen; format: in vivo, cattle; details: 3-day regimen
# Procedure: as §1, with “For intravenous injection, letrozole was prepared in 95% ethanol to a final concentration of 5 mg/ml, resulting in an injection volume of 6 mL/day.” left out
# Plasma FSH concentrations were determined in duplicate using a double-antibody radioimmunoassay using NIDDK-anti-oFSH-1 primary antibody and expressed as USDA bovine FSH-I1 units. […]
# plasma estradiol = test: Example II: plasma estradiol during 3-day letrozole regimen; format: in vivo, cattle; details: 3-day regimen, regardless of stage of follicular development
# Procedure: Plasma estradiol concentrations were determined in duplicate by enzyme-linked immunosorbent assay (Cayman Chemical Company, Ann Arbor, Mich., USA). In this competitive ELISA, plasma steroid competes with acetylcholinesterase labelled steroid for the binding site on the polyclonal rabbit anti-steroid antibody. The antiserum to estradiol was reported to cross-react with estradiol-3-glucoronide (14%), estrone (12%), and estriol (0.3%). For all other steroids cross-reactivities were reported as <0.1%. The minimum and maximum values along the standard curve were 6.6 and 4000 pg/well, respectively. The intra- and inter-assay coefficients of variation for reference samples assayed in duplicate were 11.7% and 12.7, respectively.
# For the same reasons, estradiol concentrations were transformed to a percentage of the mean concentration of two pre-treatment data points (i.e. for each individual heifer before statistical analysis.
# women = test: Letrozole at expected time of ovulation in women; format: in vivo, human; details: women treated at 18 mm follicle diameter
compound,measurement,setting,value
"N#Cc1ccc(C(c2ccc(C#N)cc2)n2cncn2)cc1 [Letrozole, letrozole]",Interwave Interval,heifers; 1 mg/kg IM in benzyl alcohol plus canola oil,11.7 ± 0.34^b Days
same,Interwave Interval,"heifers; 1 mg/kg IM in benzyl alcohol plus canola oil, listed as letrozole",11.7 days
same,day-to-day diameter profile of the corpus luteum vs IM controls,"heifers; 1 mg/kg IM, P<0.05",larger
same,Interovulatory Interval,heifers; 1 mg/kg IM,19.7 ± 0.83 days
same,Interwave Interval,heifers; 1 mg/kg IV in benzyl alcohol,"10.6 ± 0.30^a,b Days"
same,Interwave Interval,"heifers; 1 mg/kg IV in benzyl alcohol, listed as letrozole",10.6 days
same,day-to-day diameter profile of the dominant follicle among groups,"heifers; 1 mg/kg IV or IM vs placebo, Day 3 after ovulation",not different
same,Interovulatory Interval,heifers; 1 mg/kg IV,18.9 ± 0.70 days
same,Inter-ovulatory interval,"[1]; Days 1 to 3, n=10",20.9 ± 0.46^a days
same,Inter-wave interval,"[1]; Days 1 to 3, n=10",8.9 ± 0.35^a days
same,Inter-ovulatory interval,"[1]; Days 3 to 5, n=9",20.1 ± 0.49^a days
same,Inter-wave interval,"[1]; Days 3 to 5, n=9",10.0 ± 0.37^ab days
same,Inter-ovulatory interval,"[1]; Days 5 to 7, n=9",21.2 ± 0.49^a days
same,Inter-wave interval,"[1]; Days 5 to 7, n=9",10.7 ± 0.37^b days
same,Inter-wave interval,"[1]; Days 5 to 7, n=9, listed as letrozole",10.7 days
same,growth of the extant dominant follicle compared to controls,"[1]; 3-day regimen, treatment groups combined (n=28) vs untreated, P<0.01",grew longer and to a greater diameter
same,diameter profile of the largest subordinate follicle compared to controls,"[1]; treated Days 1 to 3, P<0.05",larger
same,diameter profile of the largest subordinate follicle compared to controls,[1]; treated Days 3 to 5,intermediate
same,diameter profile of the largest subordinate follicle compared to controls,[1]; treated Days 5 to 7,intermediate
same,plasma FSH levels compared with respective controls,plasma FSH,No differences
same,plasma estradiol concentrations compared to control heifers,plasma estradiol,not different
same,ovulation earlier than controls,women,24 h
